Results published in patent US20230085307A1, “PYRIDAZINONE COMPOUND AND HERBICIDE” (NISSAN CHEMICAL CORPORATION, priority 2019, published 2023).

Legend:
velvetleaf [1] = assay: Test Example 5: herbicidal effect by foliage application, plastic box (Table 20, symbol M); type: in vivo, velvetleaf (Abutilon theophrasti); details: amount of applied herbicide 320 g/ha; foliage application after 14-day growth; evaluated three weeks after application
Method in brief: (§1)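 Post-emergence foliar test in sterilized diluvial soil. Compound applied as water-diluted emulsion at a predetermined rate to 14-day-old plants; evaluation at three weeks.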

green foxtail [2] = assay: Test Example 5: herbicidal effect by foliage application, plastic box (Table 20, symbol G); type: in vivo, green foxtail (Setaria viridis); details: amount of applied herbicide 320 g/ha; foliage application after 14-day growth; evaluated three weeks after application
Method in brief: as §1

green foxtail [3] = assay: Test Example 4: herbicidal effect by soil treatment (Table 19, symbol G); type: in vivo, green foxtail (Setaria viridis); details: amount of applied herbicide 320 g/ha
Method in brief: (§2)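 Scoring uses the grading scale of an earlier test, three weeks post-application. Treatment consists of spraying a diluted emulsion formulation across the surface of sterilized diluvial soil in which seeds are buried near 1.5 cm deep; boxes are kept in a greenhouse between 25° C. and 30° C.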

wild oat [4] = assay: Test Example 4: herbicidal effect by soil treatment (Table 19, symbol I); type: in vivo, wild oat (Avena fatua); details: amount of applied herbicide 320 g/ha
Method in brief: as §2

chickweed [5] = assay: Test Example 4: herbicidal effect by soil treatment (Table 19, symbol P); type: in vivo, common chickweed (Stellaria media); details: amount of applied herbicide 320 g/ha
Method in brief: as §2

lambsquarters [6] = assay: Test Example 4: herbicidal effect by soil treatment (Table 19, symbol O); type: in vivo, lambsquarters (Chenopodium album); details: amount of applied herbicide 320 g/ha
Method in brief: as §2

rice flat sedge = assay: Test Example 3: herbicidal effect by foliage application, Wagner pot (Table 18, symbol E); type: in vivo, rice flat sedge (Cyperus iria); details: 320 g/ha
Method in brief: (§3)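 Plants were sown in alluvial soil held under 0.1–0.5 cm standing water and grown 14 days in a greenhouse at 25–30 °C. An emulsifiable formulation, water-diluted to the set dose, was then sprayed onto the foliage, and effects were scored three weeks later using previously defined criteria.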

blackgrass [7] = assay: Test Example 4: herbicidal effect by soil treatment (Table 19, symbol J); type: in vivo, blackgrass (Alopecurus myosuroides); details: amount of applied herbicide 320 g/ha
Method in brief: as §2

Italian ryegrass [8] = assay: Test Example 4: herbicidal effect by soil treatment (Table 19, symbol K); type: in vivo, Italian ryegrass (Lolium multiflorum); details: amount of applied herbicide 320 g/ha
Method in brief: as §2

late watergrass = assay: Test Example 1: herbicidal activity, application before weed generation under submerged conditions (Table 16, symbol A); type: in vivo, late watergrass (Echinochloa oryzicola); details: amount of applied herbicide 320 g/ha
Method in brief: (§4)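 Submerged Wagner pots (alluvial soil, 4 cm water) sown with weed seeds and planted with 2.5-leaf rice seedlings; emulsifiable concentrate diluted in water applied to water surface on sowing day. Held in greenhouse at 25-30 °C; injury scored 0-5 by herbicidal rate after three weeks.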

persian speedwell [9] = assay: Test Example 5: herbicidal effect by foliage application, plastic box (Table 20, symbol R); type: in vivo, Persian speedwell (Veronica persica); details: amount of applied herbicide 320 g/ha; foliage application after 14-day growth; evaluated three weeks after application
Method in brief: as §1

chickweed [10] = assay: Test Example 5: herbicidal effect by foliage application, plastic box (Table 20, symbol P); type: in vivo, common chickweed (Stellaria media); details: amount of applied herbicide 320 g/ha; foliage application after 14-day growth; evaluated three weeks after application
Method in brief: as §1

barnyard grass [11] = assay: Test Example 3: herbicidal effect by foliage application, Wagner pot (Table 18, symbol H); type: in vivo, barnyard grass (Echinochloa crus-galli); details: 320 g/ha
Method in brief: as §3

blackgrass [12] = assay: Test Example 5: herbicidal effect by foliage application, plastic box (Table 20, symbol J); type: in vivo, blackgrass (Alopecurus myosuroides); details: amount of applied herbicide 320 g/ha; foliage application after 14-day growth; evaluated three weeks after application
Method in brief: as §1

lambsquarters [13] = assay: Test Example 5: herbicidal effect by foliage application, plastic box (Table 20, symbol O); type: in vivo, lambsquarters (Chenopodium album); details: amount of applied herbicide 320 g/ha; foliage application after 14-day growth; evaluated three weeks after application
Method in brief: as §1

Chinese sprangletop = assay: Test Example 3: herbicidal effect by foliage application, Wagner pot (Table 18, symbol D); type: in vivo, chinese sprangletop (Leptochloa chinensis); details: 320 g/ha
Method in brief: as §3

redroot pigweed [14] = assay: Test Example 5: herbicidal effect by foliage application, plastic box (Table 20, symbol N); type: in vivo, redroot pigweed (Amaranthus retroflexus); details: amount of applied herbicide 320 g/ha; foliage application after 14-day growth; evaluated three weeks after application
Method in brief: as §1

false cleavers = assay: Test Example 4: herbicidal effect by soil treatment (Table 19, symbol Q); type: in vivo, false cleavers (Galium spurium); details: amount of applied herbicide 320 g/ha
Method in brief: as §2

windgrass [15] = assay: Test Example 4: herbicidal effect by soil treatment (Table 19, symbol L); type: in vivo, windgrass (Apera spica-venti); details: amount of applied herbicide 320 g/ha
Method in brief: as §2

oval-leafed pondweed = assay: Test Example 1: herbicidal activity, application before weed generation under submerged conditions (Table 16, symbol C); type: in vivo, oval-leafed pondweed (Monochoria vaginalis); details: amount of applied herbicide 320 g/ha
Method in brief: as §4

windgrass [16] = assay: Test Example 5: herbicidal effect by foliage application, plastic box (Table 20, symbol L); type: in vivo, windgrass (Apera spica-venti); details: amount of applied herbicide 320 g/ha; foliage application after 14-day growth; evaluated three weeks after application
Method in brief: as §1

redroot pigweed [17] = assay: Test Example 4: herbicidal effect by soil treatment (Table 19, symbol N); type: in vivo, redroot pigweed (Amaranthus retroflexus); details: amount of applied herbicide 320 g/ha
Method in brief: as §2

Italian ryegrass [18] = assay: Test Example 5: herbicidal effect by foliage application, plastic box (Table 20, symbol K); type: in vivo, Italian ryegrass (Lolium multiflorum); details: amount of applied herbicide 320 g/ha; foliage application after 14-day growth; evaluated three weeks after application
Method in brief: as §1

southern crabgrass [19] = assay: Test Example 5: herbicidal effect by foliage application, plastic box (Table 20, symbol F); type: in vivo, southern crabgrass (Digitaria ciliaris); details: amount of applied herbicide 320 g/ha; foliage application after 14-day growth; evaluated three weeks after application
Method in brief: as §1

southern crabgrass [20] = assay: Test Example 4: herbicidal effect by soil treatment (Table 19, symbol F); type: in vivo, southern crabgrass (Digitaria ciliaris); details: amount of applied herbicide 320 g/ha
Method in brief: as §2

Japanese bulrush = assay: Test Example 1: herbicidal activity, application before weed generation under submerged conditions (Table 16, symbol B); type: in vivo, Japanese bulrush (Schoenoplectus juncoides); details: amount of applied herbicide 320 g/ha
Method in brief: as §4

wild oat [21] = assay: Test Example 5: herbicidal effect by foliage application, plastic box (Table 20, symbol I); type: in vivo, wild oat (Avena fatua); details: amount of applied herbicide 320 g/ha; foliage application after 14-day growth; evaluated three weeks after application
Method in brief: as §1

persian speedwell [22] = assay: Test Example 4: herbicidal effect by soil treatment (Table 19, symbol R); type: in vivo, Persian speedwell (Veronica persica); details: amount of applied herbicide 320 g/ha
Method in brief: as §2

barnyard grass [23] = assay: Test Example 5: herbicidal effect by foliage application, plastic box (Table 20, symbol H); type: in vivo, barnyard grass (Echinochloa crus-galli); details: amount of applied herbicide 320 g/ha; foliage application after 14-day growth; evaluated three weeks after application
Method in brief: as §1

velvetleaf [24] = assay: Test Example 4: herbicidal effect by soil treatment (Table 19, symbol M); type: in vivo, velvetleaf (Abutilon theophrasti); details: amount of applied herbicide 320 g/ha
Method in brief: as §2

barnyard grass [25] = assay: Test Example 4: herbicidal effect by soil treatment (Table 19, symbol H); type: in vivo, barnyard grass (Echinochloa crus-galli); details: amount of applied herbicide 320 g/ha
Method in brief: as §2

## CCCC(=O)Oc1c(C)nn(C)c(=O)c1-c1c(-c2ccc3c(c2)OCO3)sc2cc(F)c(F)cc12 [5-036]
Velvetleaf [1]
  Herbicidal effect by foliage application, M: velvetleaf: 3 (Herbicidal rate of 40% or more and less than 70%)
Green foxtail [2]
  Herbicidal effect by foliage application, G: green foxtail: 0 (Herbicidal rate of 5% or less (almost no effect))
Green foxtail [3]
  G: green foxtail, herbicidal effect grade: 1 (Herbicidal rate of 5% or more and less than 20%)
Wild oat [4]
  I: wild oat, herbicidal effect grade: 0 (Herbicidal rate of 5% or less (almost no effect))
Chickweed [5]
  P: chickweed, herbicidal effect grade: 3 (Herbicidal rate of 40% or more and less than 70%)
Lambsquarters [6]
  O: lambsquarters, herbicidal effect grade: 3 (Herbicidal rate of 40% or more and less than 70%)
Rice flat sedge
  herbicidal effect on rice flat sedge (E): 0 (Herbicidal rate of 5% or less (almost no effect))
Blackgrass [7]
  J: blackgrass, herbicidal effect grade: 0 (Herbicidal rate of 5% or less (almost no effect))
Italian ryegrass [8]
  K: Italian ryegrass, herbicidal effect grade: 0 (Herbicidal rate of 5% or less (almost no effect))
Late watergrass
  Herbicidal effect, A: late watergrass: 2 (Herbicidal rate of 20% or more and less than 40%)
Persian speedwell [9]
  Herbicidal effect by foliage application, R: persian speedwell: 5 (Herbicidal rate of 90% or more (almost completely withered))
Chickweed [10]
  Herbicidal effect by foliage application, P: chickweed: 5 (Herbicidal rate of 90% or more (almost completely withered))
Barnyard grass [11]
  herbicidal effect on barnyard grass (H): 2 (Herbicidal rate of 20% or more and less than 40%)
Blackgrass [12]
  Herbicidal effect by foliage application, J: blackgrass: 0 (Herbicidal rate of 5% or less (almost no effect))
Lambsquarters [13]
  Herbicidal effect by foliage application, O: lambsquarters: 3 (Herbicidal rate of 40% or more and less than 70%)
Chinese sprangletop
  herbicidal effect on Chinese sprangletop (D): 0 (Herbicidal rate of 5% or less (almost no effect))
Redroot pigweed [14]
  Herbicidal effect by foliage application, N: redroot pigweed: 1 (Herbicidal rate of 5% or more and less than 20%)
False cleavers
  Q: false cleavers, herbicidal effect grade: 0 (Herbicidal rate of 5% or less (almost no effect))
Windgrass [15]
  L: windgrass, herbicidal effect grade: 0 (Herbicidal rate of 5% or less (almost no effect))
oval-leafed pondweed
  Herbicidal effect, C: oval-leafed pondweed: 2 (Herbicidal rate of 20% or more and less than 40%)
Windgrass [16]
  Herbicidal effect by foliage application, L: windgrass: 0 (Herbicidal rate of 5% or less (almost no effect))
Redroot pigweed [17]
  N: redroot pigweed, herbicidal effect grade: 4 (Herbicidal rate of 70% or more and less than 90%)
Italian ryegrass [18]
  Herbicidal effect by foliage application, K: Italian ryegrass: 0 (Herbicidal rate of 5% or less (almost no effect))
Southern crabgrass [19]
  Herbicidal effect by foliage application, F: southern crabgrass: 0 (Herbicidal rate of 5% or less (almost no effect))
Southern crabgrass [20]
  F: southern crabgrass, herbicidal effect grade: 0 (Herbicidal rate of 5% or less (almost no effect))
Japanese bulrush
  Herbicidal effect, B: Japanese bulrush: 2 (Herbicidal rate of 20% or more and less than 40%)
Wild oat [21]
  Herbicidal effect by foliage application, I: wild oat: 0 (Herbicidal rate of 5% or less (almost no effect))
Persian speedwell [22]
  R: persian speedwell, herbicidal effect grade: 3 (Herbicidal rate of 40% or more and less than 70%)
Barnyard grass [23]
  Herbicidal effect by foliage application, H: barnyard grass: 0 (Herbicidal rate of 5% or less (almost no effect))
Velvetleaf [24]
  M: velvetleaf, herbicidal effect grade: 0 (Herbicidal rate of 5% or less (almost no effect))
Barnyard grass [25]
  H: barnyard grass, herbicidal effect grade: 0 (Herbicidal rate of 5% or less (almost no effect))
